In patent US20230074252A1, “DOSAGES AND METHODS FOR TREATING PULMONARY ARTERIAL HYPERTENSION WITH RODATRISTAT” (Altavant Sciences GmbH, priority 2020, published 2023):
Several values for one entry are separate records, joined by “and”; a condition that tells them apart may be missing. Equal entries are not always repeated.

Target: T1, CYP2C8 (Homo sapiens, UniProt P10632)
T1 sequence (P10632 1-490): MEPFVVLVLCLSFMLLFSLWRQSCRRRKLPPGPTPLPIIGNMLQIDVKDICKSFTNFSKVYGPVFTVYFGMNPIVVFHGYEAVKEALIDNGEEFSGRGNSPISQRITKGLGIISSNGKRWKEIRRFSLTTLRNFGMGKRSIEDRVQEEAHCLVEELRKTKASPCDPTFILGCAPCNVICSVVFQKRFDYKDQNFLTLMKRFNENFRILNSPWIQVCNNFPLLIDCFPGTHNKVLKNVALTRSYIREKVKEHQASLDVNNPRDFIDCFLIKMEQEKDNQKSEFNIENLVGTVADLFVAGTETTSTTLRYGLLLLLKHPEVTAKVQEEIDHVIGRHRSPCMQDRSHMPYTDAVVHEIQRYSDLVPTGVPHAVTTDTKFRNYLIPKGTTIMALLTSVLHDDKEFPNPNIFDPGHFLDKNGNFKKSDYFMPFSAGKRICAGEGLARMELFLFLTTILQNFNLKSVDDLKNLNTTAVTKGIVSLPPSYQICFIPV
Assay: Unbound hepatic portal vein Cmax versus Ki analysis (Walsky et al)
Parameters: from tissue; host or cells: pooled human liver microsomes (n=200 donors)
Description: Walsky, et al^i evaluated criteria to assess the potential for approved drugs to elicit clinically-meaningful drug interactions via inhibition of 2C8. Following their evaluation of 209 compounds they opined that unbound hepatic portal vein concentration (Cmax, u, portal) compared to the in vitro Ki provides additional insight beyond peripheral Cmax (used for FDA criteria) as it reflects the unbound drug concentration entering the liver.
Calculation of Cmax, u, portal uses plasma Cmax, fraction of an oral dose absorbed (Fa) and measured unbound fraction in blood. For rodatristat, experimentally derived values were used for Fa determined in a rat 14C study (20%) and in vitro binding to human plasma (99.1%) and blood:plasma distribution (RB, 0.72). Walsky et al proposed a threshold where the ratio of Cmax, u, portal/Ki of <0.1 is associated with low risk. […] In the rat, the RE:R is ˜3-fold higher in portal blood compared to the periphery.

Cmax, u, portal/Ki: 0.128 and < 0.128
SMILES: Nc1nc(O[C@H](c2ccc(Cl)cc2-c2ccccc2)C(F)(F)F)cc(N2CCC3(CC2)CN[C@H](C(=O)O)C3)n1 [Rodatristat, (S)-8-(2-amino-6-((R)-1-(5-chloro-[1,1′-biphenyl]-2-yl)-2,2,2-trifluoroeth-oxy)pyrimidin-4-yl)-2,8-diazaspiro[4.5]decane-3-carboxylic acid]
